Experimental data: PMC5034043 (The Journal of Biological Chemistry, 2016)
Like-named read-outs stand apart in the source and are kept apart here.

System: T1, synaptosomal proteome
T1 construct: from tissue; host or cells: brain synaptosomes of male C57/B6 mice
Format: binding, mouse
Experimental: Synaptosomes were resuspended to 1 mg of protein/ml in HEPES buffer medium (in mM: 140 NaCl, 5 KCl, 5 NaHCO3, 1.2 NaH2PO4, 1 MgCl2, 10 glucose, and 10 HEPES (pH 7.4)). […] The samples were allowed to equilibrate for 5 min before being transferred to a parafilm-sealed 1-mm path length quartz cuvette. The sample was then irradiated for 20 min at a peak bandwidth of 350 nm (Rayonet RPR-3500 lamp) ∼6 cm from the light source. Non-irradiated samples were left in the dark at ambient temperature (22–25 °C) for 20 min. All remaining procedures were conducted with restricted light exposure.
To 750 μg of photolabeled or control synaptosome samples, 40 μl of 10% SDS and 2 μl of 5 mM DTT in water were added. Samples were then vortexed, heated for 10 min at 65 °C, and then briefly cooled. Final concentrations of 150 μM azide-biotin (Click Chemistry Tools), 2 mM tris(3-hydroxypropyltriazolylmethyl)amine (Sigma), 1 mM ascorbic acid (Sigma), and 1 mM CuSO4·5H2O (Sigma) were added to each sample and vortexed vigorously. The samples were left in the dark at ambient temperature (22–25 °C) for 1 h with mild agitation. Directly to each sample 4× volume chilled methanol, 1.5× chilled chloroform, and 3× chilled double distilled H2O were added. Samples were vortexed vigorously and centrifuged at 1,400 × g for 30 min at 4 °C. Both liquid layers were carefully removed, and the protein pellet was washed with 2 ml of 1:1 (v/v) chilled methanol/chloroform. Samples were centrifuged at 3,500 × g for 30 min at 4 °C. Protein pellets were briefly air-dried before further processing.
750 μg of biotin-conjugated protein sample was resuspended in 500 μl of 25 mM NH4HCO3 and 6 M urea in water. Next, 150 μl of 5% Triton X-100 in water, 50 μl of 10% SDS in water, and 1.5 μl of 0.5 M DTT were added. The samples were heated for 15 min at 65 °C. After briefly cooling, 14 μl of 0.5 M iodoacetamide in water was added, and the sample was left in the dark for 45 min. […] The supernatant was diluted to 4 ml with PBS, and 2 ml of PBS containing 100 μl of 50% streptavidin-agarose resin (Thermo Scientific) was added. Biotinylated proteins within the sample were captured over resin overnight at 4 °C with mild agitation. The resin was first washed with 6 ml of 1% SDS in PBS, and then 7 ml of 0.1 M urea in PBS followed by 10 ml of PBS. The resin underwent a final wash with 0.9 ml of 50 mM Tris-HCl and 1 mM CaCl2 in water (pH 8.0) and then resuspended in 200 μl of 50 mM Tris-HCl, 1 mM CaCl2 in water (pH 8.0), and 2 μg of porcine sequencing grade trypsin (Promega). Samples were digested overnight at 37 °C. Samples were then centrifuged at 2,000 × g for 4 min, and digest supernatant was decanted. Beads were washed in 100 μl of PBS centrifuged at 5,200 × g for 5 min, and the wash was combined with the digest supernatant. To the combined sample, trifluoroacetic acid (TFA) was added to 0.4% (v/v) or until pH <2. The sample was desalted with Oasis C18 10-mg columns (Waters) as described previously ([66]). The eluted sample was dried by speed vac and resuspended in 0.1 M HEPES buffer (pH 8.5). […] Appropriate corresponding TMTsixplex^TM-labeled samples were pooled and dried by speed vac. The combined samples were resuspended in 0.5% acetic acid in water and pH-corrected with acetic acid until pH was <2. 40 μg of protein was desalted with C18 stage tips prepared in-house and dried by speed vac.
Samples were resuspended in 10 mM KH2PO4 (pH 2.6), 30% acetonitrile (v/v) in water, and fractionated by off-line strong cation exchange chromatography prior to mass spectrometry (MS) analysis similar to as reported previously ([66]). The full synaptosome proteome control was prepared similarly without TMTsixplex^TM labeling.
All TMT samples were analyzed with three-stage mass spectrometry (MS3) TMTsixplex^TM quantification workflow as described previously ([34]).

[1] = protein A2AGI3 Neuroligin-3 (Nlgn3)
[2] = protein A2AWI7 Endophilin-B2 (Sh3glb2)
[3] = protein D3Z5T2 Armadillo repeat-containing protein 10 (Armc10)
[4] = protein E9Q3V6 Septin-2 (Sept2)
[5] = protein F7C846 Metaxin-1 (Mtx1)
[6] = protein F8WGD9 1-acyl-sn-glycerol-3-phosphate acyltransferase epsilon (Agpat5)
[7] = protein G3UYZ1 Immunoglobulin superfamily member 8 (Igsf8)
[8] = protein G5E829 Plasma membrane calcium-transporting ATPase 1 (Atp2b1)
[9] = protein O09111 NADH dehydrogenase [ubiquinone] 1 beta subcomplex subunit 11, mitochondrial (Ndufb11)
[10] = protein O35114 Lysosome membrane protein 2 (Scarb2)
[11] = protein O35526 Syntaxin-1A (Stx1a)
[12] = protein O35874 Neutral amino acid transporter A (Slc1a4)

In the case of `C#CCOCc1ccc(C2(C(F)(F)F)N=N2)cc1O` [AziPm-click (1), 2-((prop-2-yn-1-yloxy)methyl)-5-(3-(trifluoromethyl)-3H-diazirin-3-yl)phenol], the “Log2( Mean 'UV/ No UV')” value (B1AU25 Aifm1) is reported as 4.01, the “TMT Ratio Mean 'UV/ No UV'” value (B1AU25 Aifm1) is reported as 16.13 and the “Log2( Mean 'UV/ No UV')” value (O35633-2 Slc32a1) is reported as 4.34. For the same compound, the “Log2( Mean 'UV/ No UV')” value (O35678 Mgll) was 4.63, the “TMT Ratio Mean 'UV/ No UV'” value (O35678 Mgll) was 24.71 and the “Log2( Mean 'UV/ No UV')” value (P07724 Alb) was 4.39. For the same compound, the “TMT Ratio Mean 'UV/ No UV'” value (P07724 Alb) was 20.95, the “Log2( Mean 'UV/ No UV')” value (P08226 Apoe) was 3.80 and the “TMT Ratio Mean 'UV/ No UV'” value (P08226 Apoe) was 13.94. For the same compound, the “Log2( Mean 'UV/ No UV')” value (P17665 Cox7c) was 4.31, the “TMT Ratio Mean 'UV/ No UV'” value (P17665 Cox7c) was 19.82 and the “Log2( Mean 'UV/ No UV')” value (P19157 Gstp1) was 3.61. The “TMT Ratio Mean 'UV/ No UV'” value (P19157 Gstp1) was 12.21, the “Log2( Mean 'UV/ No UV')” value (P23242 Gja1) was 3.58 and the “TMT Ratio Mean 'UV/ No UV'” value (P23242 Gja1) was 11.95. The “Log2( Mean 'UV/ No UV')” value (P31648 Slc6a1) was 4.60, the “TMT Ratio Mean 'UV/ No UV'” value (P31648 Slc6a1) was 24.21 and the “Log2( Mean 'UV/ No UV')” value (P35279 Rab6a) was 3.67. The “TMT Ratio Mean 'UV/ No UV'” value (P35279 Rab6a) was 12.71, the “Log2( Mean 'UV/ No UV')” value (P40237 Cd82) was 3.95 and the “TMT Ratio Mean 'UV/ No UV'” value (P40237 Cd82) was 15.49. The “Log2( Mean 'UV/ No UV')” value (P42125 Eci1) was 4.01, the “TMT Ratio Mean 'UV/ No UV'” value (P42125 Eci1) was 16.13 and the “Log2( Mean 'UV/ No UV')” value (P51150 Rab7a) was 3.54. The “TMT Ratio Mean 'UV/ No UV'” value (P51150 Rab7a) was 11.65, the “Log2( Mean 'UV/ No UV')” value (P60879-2 Snap25) was 4.57 and the “Log2( Mean 'UV/ No UV')” value (P61294 Rab6b) was 3.78. The “TMT Ratio Mean 'UV/ No UV'” value (P61294 Rab6b) was 13.75, the “Log2( Mean 'UV/ No UV')” value (P61620 Sec61a1) was 4.06 and the “TMT Ratio Mean 'UV/ No UV'” value (P61620 Sec61a1) was 16.63. The “Log2( Mean 'UV/ No UV')” value (P63011 Rab3a) was 3.83, the “TMT Ratio Mean 'UV/ No UV'” value (P63011 Rab3a) was 14.19 and the “Log2( Mean 'UV/ No UV')” value (P63037 Dnaja1) was 3.64. For the same compound, the “TMT Ratio Mean 'UV/ No UV'” value (P63037 Dnaja1) was 12.46, the “Log2( Mean 'UV/ No UV')” value (P63213 Gng2) was 3.65 and the “TMT Ratio Mean 'UV/ No UV'” value (P63213 Gng2) was 12.51. For the same compound, the “Log2( Mean 'UV/ No UV')” value (Q5ICG5 Acsl6) was 3.88, the “TMT Ratio Mean 'UV/ No UV'” value (Q5ICG5 Acsl6) was 14.71 and the “Log2( Mean 'UV/ No UV')” value (Q5SW88 Rab1) was 3.58. The “TMT Ratio Mean 'UV/ No UV'” value (Q5SW88 Rab1) was 11.95, the “Log2( Mean 'UV/ No UV')” value (Q8BXV2 Bri3bp) was 3.89 and the “TMT Ratio Mean 'UV/ No UV'” value (Q8BXV2 Bri3bp) was 14.84. The “Log2( Mean 'UV/ No UV')” value (Q8C3X2 Ccdc90b) was 4.00, the “TMT Ratio Mean 'UV/ No UV'” value (Q8C3X2 Ccdc90b) was 16.04 and the “Log2( Mean 'UV/ No UV')” value (Q8K4X7 Agpat4) was 4.25. The “TMT Ratio Mean 'UV/ No UV'” value (Q8K4X7 Agpat4) was 18.96, the “Log2( Mean 'UV/ No UV')” value (Q8R5J9 Arl6ip5) was 4.56 and the “TMT Ratio Mean 'UV/ No UV'” value (Q8R5J9 Arl6ip5) was 23.65. For the same compound, the “Log2( Mean 'UV/ No UV')” value (Q9CXJ4 Abcb8) was 3.93, the “TMT Ratio Mean 'UV/ No UV'” value (Q9CXJ4 Abcb8) was 15.28 and the “Log2( Mean 'UV/ No UV')” value (Q9CZS1 Aldh1b1) was 4.40. The “TMT Ratio Mean 'UV/ No UV'” value (Q9CZS1 Aldh1b1) was 21.11, the “Log2( Mean 'UV/ No UV')” value (Q9CZT8 Rab3b) was 3.73 and the “TMT Ratio Mean 'UV/ No UV'” value (Q9CZT8 Rab3b) was 13.26. The “Log2( Mean 'UV/ No UV')” value (Q9D5T0 Atad1) was 3.65, the “TMT Ratio Mean 'UV/ No UV'” value (Q9D5T0 Atad1) was 12.57 and the “Log2( Mean 'UV/ No UV')” value (Q9EP69 Sacm1l) was 4.04. The “TMT Ratio Mean 'UV/ No UV'” value (Q9EP69 Sacm1l) was 16.45, the “Log2( Mean 'UV/ No UV')” value (Q9ER00 Stx12) was 3.85 and the “TMT Ratio Mean 'UV/ No UV'” value (Q9ER00 Stx12) was 14.40. For the same compound, the “Log2( Mean 'UV/ No UV')” value (Q9Z2I0 Letm1) was 4.32, the “TMT Ratio Mean 'UV/ No UV'” value (Q9Z2I0 Letm1) was 19.93 and the “Log2( Mean 'UV/ No UV')” value (Q80ZW2 Them6) was 4.50. For the same compound, the “TMT Ratio Mean 'UV/ No UV'” value (Q80ZW2 Them6) was 22.62, the “Log2( Mean 'UV/ No UV')” value (Q99JY8 Ppap2b) was 4.16 and the “TMT Ratio Mean 'UV/ No UV'” value (Q99JY8 Ppap2b) was 17.86. The “Log2( Mean 'UV/ No UV')” value (Q00915 Rbp1) was 4.46, the “TMT Ratio Mean 'UV/ No UV'” value (Q00915 Rbp1) was 22.07 and the “Log2( Mean 'UV/ No UV')” value (Q60771 Cldn11) was 4.48. For the same compound, the “TMT Ratio Mean 'UV/ No UV'” value (Q60771 Cldn11) was 22.33, the “Log2( Mean 'UV/ No UV')” value [1] was 3.89 and the “TMT Ratio Mean 'UV/ No UV'” value [1] was 14.80. The “Log2( Mean 'UV/ No UV')” value [2] was 3.55, the “TMT Ratio Mean 'UV/ No UV'” value [2] was 11.67 and the “Log2( Mean 'UV/ No UV')” value [3] was 3.94. The “TMT Ratio Mean 'UV/ No UV'” value [3] was 15.34, the “Log2( Mean 'UV/ No UV')” value [4] was 4.02 and the “TMT Ratio Mean 'UV/ No UV'” value [4] was 16.25. For the same compound, the “Log2( Mean 'UV/ No UV')” value [5] was 4.31, the “TMT Ratio Mean 'UV/ No UV'” value [5] was 19.87 and the “Log2( Mean 'UV/ No UV')” value [6] was 4.62. The “TMT Ratio Mean 'UV/ No UV'” value [6] was 24.62, the “Log2( Mean 'UV/ No UV')” value [7] was 3.89 and the “TMT Ratio Mean 'UV/ No UV'” value [7] was 14.81. For the same compound, the “Log2( Mean 'UV/ No UV')” value [8] was 3.59, the “TMT Ratio Mean 'UV/ No UV'” value [8] was 12.05 and the “Log2( Mean 'UV/ No UV')” value [9] was 3.68. For the same compound, the “TMT Ratio Mean 'UV/ No UV'” value [9] was 12.78, the “Log2( Mean 'UV/ No UV')” value [10] was 4.27 and the “TMT Ratio Mean 'UV/ No UV'” value [10] was 19.35. The “Log2( Mean 'UV/ No UV')” value [11] was 3.50, the “TMT Ratio Mean 'UV/ No UV'” value [11] was 11.31 and the “Log2( Mean 'UV/ No UV')” value [12] was 4.57. For the same compound, the “TMT Ratio Mean 'UV/ No UV'” value [12] was 23.78 and the “Log2( Mean 'UV/ No UV')” value (protein O35963 Ras-related protein Rab-33B (Rab33b)) was 4.02.
